Measured values taken from PMC12737779, “Concurrent Assessment of Synthetic and Natural Compounds on the Proliferation of Toxoplasma gondii in In Vitro Models” (Tropical Medicine and Infectious Disease, 2025).

Assays:
[1] = Cytotoxicity in Vero cells by Alamar Blue assay; type: cell-based, African green monkey; conditions: African green monkey
Description: (§1) The Vero cell line was seeded in 96-well plates at approximately 20,000 cells per well until approximately 100% confluence was reached. […] All compounds were evaluated at elevated concentrations, diluted in 1% DMSO, to determine the maximum concentration at which they could remain in solution for experimental purposes. It was observed that most compounds were not fully soluble at 320 µM. […] Consequently, all further experiments were initiated from this concentration. […] Four hours later, fluorescence was measured using a BioTek Synergy HTX plate reader at 530/25 nm excitation and 590/25 nm emission. […] A color change in the growth control well to pink indicated proper cell growth, and no color change in the sterile control well indicated the absence of contaminants. The normalized viability percentages (Y-values) of viable host cells and viable T. gondii GFP RH tachyzoites were calculated from the mean ± standard deviation for each concentration evaluated in triplicate. The concentration values (X-axis) were subjected to logarithmic transformation to fit the data to a sigmoidal curve. The half-maximal cytotoxic concentration (CC50) was estimated as the interpolated concentration value on the X-axis corresponding to the response midway between the fitted top and bottom plateaus of the curve. Similarly, the half-maximal inhibitory concentration (IC50) was determined as the concentration at which the response was halfway between the top and the bottom plateaus. Data analysis and visualization were conducted using GraphPad Prism version 8.4.3 (GraphPad Software, San Diego, CA, USA). The selectivity index, also known as the Therapeutic Index, was calculated using the formula: SI = CC50/IC50.

[2] = tested on: T. gondii RH GFP tachyzoites; experiment: T. gondii RH GFP tachyzoite viability assay, 72 h continuous exposure; type: cell-based, Toxoplasma gondii; conditions: for SI: CC50/IC50, 72 h continuous exposure; for IC50: 72 h continuous exposure, GFP tachyzoite viability in Vero cells
Description: Approximately 10,000 tachyzoites of the T. gondii RH GFP strain were quantified using a hemocytometer and subsequently inoculated into Vero cells at full confluence per well in a 96-well plate using a medium conducive to parasite maintenance. Following our laboratory protocols and the methodologies outlined in previous studies, we routinely utilize an inoculum of 10,000 parasites for the Toxoplasma gondii RH-GFP tachyzoite viability assay, which is conducted over a 72 h duration. This parasite density ensures reliable detection of tachyzoite growth and viability while minimizing the likelihood of detachment or any degree of disruption to the host cell monolayer. Concurrently, derivatives of pyrazoline, pyrazole, and thiazolidinone nucleus compounds were introduced at […], with 1:2 dilutions commencing at 160 μM and decreasing to a minimum concentration of 1.25 μM in triplicate. The controls employed in this experiment included non-infected cells (NC), 10 μM pyrimethamine (Pyr), 1% dimethyl sulfoxide (DMSO), and infected cells without treatment (IC). Seventy-two hours post-infection, each well in the 96-well plate was examined using a 10× objective on the EVOS FL Color Imaging System with the GFP fluorescent light cube, and images were captured approximately at the center of each well. The parasites that glowed green were considered viable, and the percentage of tachyzoite viability was compared with that of the untreated parasites. Subsequently, images were recorded, contrast was adjusted, and a semiquantitative digital analysis was conducted using ImageJ v1.54d and the triangle auto-threshold method to determine the number of viable GFP fluorescent tachyzoites per image, as previously described. The percentage of viable parasites was calculated using the formula: Fluorescence of the sample with treatment URF × 100/fluorescence of the control without treatment, where URF = unit relatives of fluorescence calculated with the formula: (sample fluorescence/fluorescence in blank well) × 100.
(§2) The normalized viability percentages (Y-values) of viable host cells and viable T. gondii GFP RH tachyzoites were calculated from the mean ± standard deviation for each concentration evaluated in triplicate. The concentration values (X-axis) were subjected to logarithmic transformation to fit the data to a sigmoidal curve. The half-maximal cytotoxic concentration (CC50) was estimated as the interpolated concentration value on the X-axis corresponding to the response midway between the fitted top and bottom plateaus of the curve. Similarly, the half-maximal inhibitory concentration (IC50) was determined as the concentration at which the response was halfway between the top and the bottom plateaus. Data analysis and visualization were conducted using GraphPad Prism version 8.4.3 (GraphPad Software, San Diego, CA, USA). The selectivity index, also known as the Therapeutic Index, was calculated using the formula: SI = CC50/IC50.

[3] = tested on: T. gondii RH GFP tachyzoites; experiment: T. gondii RH GFP tachyzoite viability following 24 h pretreatment of host cells; type: cell-based, Toxoplasma gondii; conditions: for Host Cell Pre-Treatment SI: CC50/IC50, host cell pre-treatment; for IC50: Vero cells pretreated 24 h, read 72 h post-infection, read-out: Host Cell Pre-Treatment IC50
Description: Subsequently, 10,000 T. gondii RH GFP tachyzoites were introduced into each well. The experimental controls included non-infected cells (NC), 10 μM pyrimethamine (Pyr), 1% dimethyl sulfoxide (DMSO), and infected cells without treatment (IC). After 24 h of host cell treatment, the medium was replaced with a compound-free medium for parasite maintenance. Seventy-two hours post-infection, each well of the 96-well plate was examined using a 10× objective on an Evos FL Auto Cell Imaging System microscope (Life Technologies, Carlsbad, CA, USA). A semiquantitative digital analysis was conducted using ImageJ v1.54d and the triangle auto-threshold method to quantify the number of viable GFP fluorescent tachyzoites per image, as previously described.
as §2

[4] = tested on: T. gondii RH GFP tachyzoites; experiment: T. gondii RH GFP tachyzoite viability following 3 h pretreatment of parasites; type: cell-based, Toxoplasma gondii; conditions: for Tachyzoite Pre-Treatment SI: CC50/IC50, tachyzoite pre-treatment; for IC50: read-out: Tachyzoite Pre-Treatment IC50
Description: Following treatment, tachyzoites were centrifuged at 712× g for 10 min, and the supernatant was discarded. Fresh medium devoid of compounds was then added to resuspend the parasites. Subsequently, 10,000 pretreated T. gondii RH GFP tachyzoites were introduced into each well of a 96-well plate containing Vero cells at 100% confluence. Seventy-two hours post-infection, each well of the 96-well plate was examined using a 10× objective on an EVOS microscope. Semiquantitative digital analysis was performed using ImageJ v1.54d, employing the triangle auto-threshold method to quantify the number of viable GFP fluorescent tachyzoites per image, as previously described.
as §2

Vero cells = experiment: Cytotoxicity in Vero cells by Alamar Blue assay; type: cell-based, African green monkey; conditions: 24 h
Description: as §1

[5] = Toxoplasma gondii, tachyzoites pretreated 3 h, read 72 h post-infection
[6] = tachyzoites pretreated 3 h, read 72 h post-infection

SMILES	CC50 at 24 h [1] [µM]	SI [2]	IC50 ([2]; Toxoplasma gondii) [µM]	Host Cell Pre-Treatment SI [3]	IC50 ([3]; Toxoplasma gondii) [µM]	Tachyzoite Pre-Treatment SI [4]	IC50 ([4]; Toxoplasma gondii) [µM]	CC50 (Vero cells) [µM]	IC50 [2] [µM]	IC50 [4, 5] [µM]	IC50 [3] [µM]	IC50 [4, 6] [µM]
CCc1nc(N)nc(N)c1-c1ccc(Cl)cc1 [Pyrimethamine, pyrimethamine, reference compound]	> 200	>666	0.3	>190	1	>32.4	6.1					
CC(C)(C)n1nc(-c2c[nH]c3ccccc23)c(C#N)c1-c1ccc(Br)cc1 [Compound 8]		>7.6						> 160	21			
COc1ccc(C2CC(c3ccc(O)c(OC)c3)=NN2)cc1 (stereo not shown) [Compound 3]		>8.3						> 160	18.1			
CC(C)(C)n1nc(-c2c[nH]c3ccccc23)c(C#N)c1-c1c(Cl)cccc1Cl [Compound 5]		>11.4						> 160	14			
CC(=N/O)/C(C)=N\N=C1/NC(=O)/C(=C/c2ccc(Cl)cc2)S1 [Compound 14]		>1.1						> 160	142			
CC(=NO)C(C)=NN=C1NC(=O)/C(=C/c2ccccc2O)S1 [Compound 9]	> 160	>25.9	6.1	>14.9	10.7	>164.9				0.9		
COc1ccc(C=C2SC(=NN=C(C)C(C)=NO)NC2=O)cc1 [Compound 12]		10.2		3.8		6.9		40.3	3.9		10.5	5.8
CC(=N/O)/C(C)=N\N=C1\NC(=O)/C(=C/c2cc3ccccc3[nH]c2=O)S1 [Compound 15]	> 160	>16.8	9.5	>2.9	54.4	>39.7				4		
COc1cc(C2=NNC(c3ccc(F)cc3)C2)ccc1O (stereo not shown) [Compound 1]		19.6		17.5		5.6		132	6.7		7.5	23.4
COc1cc(C2=NNC(c3ccc4c(c3)OCO4)C2)ccc1O (stereo not shown) [Compound 4]		42.6		28.9		4.8		154			5.3	31.6
COc1cc(C2=NNC(c3ccc(Cl)cc3)C2)ccc1O (stereo not shown) [Compound 2]		73.3		16.4		18.6		123			7.5	6.6
CC(=N/O)/C(C)=N\N=C1/NC(=O)/C(=C/c2ccc(C#N)cc2)S1 [Compound 11]	53.2	14.5	3.6	2.3	22.5	1.8				29.5		
CC(=N/O)/C(C)=N\N=C1/NC(=O)/C(=C/c2ccc(O)c(O)c2)S1 [Compound 13]		>18.1		>0.6		>8.0		> 160	8.8			19.8
CC(=NO)C(C)=NN=C1NC(=O)C(=Cc2ccc(O)cc2)S1 [Compound 10]		10.6		3.9		12.4		61.2	5.7		15.4	4.9
